The compounds below were run on HCV replicon (assay: HCV replicon replication assay (NPT ELISA) in Huh-7 replicon-containing cells). Conditions: Hepatitis C virus, 72 h; HCV replicon in Huh-7 cells, three days incubation; read-out: EC50.
Type: cell-based
Summary of the method: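 Huh-7 cells carrying a bicistronic HCV replicon (HCV-IRES-neo, EMCV-IRES-driven NS3–NS5B, 3′-NTR) were seeded at 6000-7500 cells/well, grown 24 h to 60-70% confluence, then treated with graded compound concentrations. Replication was read as NPT level by capture ELISA (rabbit anti-NPTII, Eu-N1 secondary); interferon alpha served as positive control.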

Row | Compound | EC50 [nM]
1 | C=C[C@@H]1C[C@]1(NC(=O)[C@@H]1C[C@@H](Oc2cc(-c3ccccn3)nc3c4c(ccc23)CCC4)CN1C(=O)[C@@H](CC(=O)N1CCCCC1)C(C)(C)C)C(=O)NS(=O)(=O)C1CC1 [Compound 242, (2S,4R)-1-((S)-2-tert-butyl-4-oxo-4-(piperidin-1-yl)butanoyl)-N-((2S)-1-(cyclopropyl-sulfonylcarbamoyl)-2-vinylcyclopropyl)-4-(2-(pyridin-2-yl)-8,9-dihydro-7H-cyclopenta[h]quino-lin-4-yloxy)pyrrolidine-2-carboxamide] | < 1000
2 | C=C[C@@H]1C[C@]1(NC(=O)[C@@H]1C[C@@H](Oc2nc(-c3ccccn3)cc3c(Cl)c(OC)ccc23)CN1C(=O)[C@@H](CC(=O)N1CCCCC1)C(C)(C)C)C(=O)NS(=O)(=O)C1CC1 [Compound 243, (2S,4R)-1-((S)-2-tert-butyl-4-oxo-4-(piperidin-1-yl)butanoyl)-4-(5-chloro-6-methoxy-3-(pyridin-2-yl)isoquinolin-1-yloxy)-N-((2S)-1-(cyclopropyl-sulfonylcarbamoyl)-2-vinylcyclo-propyl)pyrrolidine-2-carboxamide] | < 1000
3 | C=C[C@@H]1C[C@]1(NC(=O)[C@@H]1C[C@@H](Oc2nc(-c3ccccn3)cc3c(Cl)c(OC)ccc23)CN1C(=O)[C@@H](CC(=O)N1CCCC(F)(F)C1)C(C)(C)C)C(=O)NS(=O)(=O)C1CC1 [Compound 244, (2S,4R)-1-((S)-2-tert-butyl-4-(3,3-difluoropiperidin-1-yl)-4-oxobutanoyl)-4-(5-chloro-6-methoxy-3-(pyridin-2-yl)isoquinolin-1-yloxy)-N-((2S)-1-(cyclopropyl-sulfonylcarbamoyl)-2-vinylcyclo-propyl)pyrrolidine-2-carboxamide] | < 1000
4 | C=C[C@@H]1C[C@]1(NC(=O)[C@@H]1C[C@@H](Oc2cc(-c3ccccn3)nc3c(C)c(OC)ccc23)CN1C(=O)[C@@H](CC(=O)N1CCCC(F)(F)C1)C(C)(C)C)C(=O)NS(=O)(=O)C1CC1 [Compound 246, (2S,4R)-1-((S)-2-tert-butyl-4-(3,3-difluoropiperidin-1-yl)-4-oxobutanoyl)-N-((2S)-1-(cyclopropyl-sulfonylcarbamoyl)-2-vinylcyclopropyl)-4-(7-methoxy-8-methyl-2-(pyridin-2-yl)quinolin-4-yloxy)pyrrolidine-2-carboxamide] | < 1000
5 | C=C[C@@H]1C[C@]1(NC(=O)[C@@H]1C[C@@H](Oc2nccc3c(Cl)c(OC)ccc23)CN1C(=O)[C@@H](CC(=O)N1CCCC(F)(F)C1)C(C)(C)C)C(=O)NS(=O)(=O)C1CC1 [Compound 247, (2S,4R)-1-((S)-2-tert-butyl-4-(3,3-difluoropiperidin-1-yl)-4-oxobutanoyl)-4-(5-chloro-6-methoxyisoquinolin-1-yloxy)-N-((2S)-1-(cyclopropyl-sulfonylcarbamoyl)-2-vinylcyclo-propyl)pyrrolidine-2-carboxamide] | < 1000
6 | C=C[C@@H]1C[C@]1(NC(=O)[C@@H]1C[C@@H](Oc2cc(-c3nc(C(C)C)cs3)nc3c(C)c(OC)ccc23)CN1C(=O)[C@@H](CC(=O)N1CCCC(F)(F)C1)C(C)(C)C)C(=O)NS(=O)(=O)C1CC1 [Compound 248, (2S,4R)-1-((S)-2-tert-butyl-4-(3,3-difluoropiperidin-1-yl)-4-oxobutanoyl)-N-((2S)-1-(cyclopropyl-sulfonylcarbamoyl)-2-vinylcyclopropyl)-4-(2-(4-isopropylthiazol-2-yl)-7-methoxy-8-methylquinolin-4-yloxy)pyrrolidine-2-carboxamide] | < 1000
7 | C=C[C@@H]1C[C@]1(NC(=O)[C@@H]1C[C@@H](Oc2cc(-c3nc(C(C)C)cs3)nc3cc(OC)ccc23)CN1C(=O)[C@@H](CC(=O)N1CCCC(F)(F)C1)C(C)(C)C)C(=O)NS(=O)(=O)C1CC1 [Compound 251, (2S,4R)-1-((S)-2-tert-butyl-4-(3,3-difluoropiperidin-1-yl)-4-oxobutanoyl)-N-((2S)-1-(cyclopropyl-sulfonylcarbamoyl)-2-vinylcyclopropyl)-4-(2-(4-isopropylthiazol-2-yl)-7-methoxyquinolin-4-yloxy)pyrrolidine-2-carboxamide] | < 1000
8 | C=C[C@@H]1C[C@]1(NC(=O)[C@@H]1C[C@@H](Oc2cc(-c3cccnc3)nc3c(C)c(OC)ccc23)CN1C(=O)[C@@H](CC(=O)N1CCCC(F)(F)C1)C(C)(C)C)C(=O)NS(=O)(=O)C1CC1 [Compound 252, (2S,4R)-1-((S)-2-tert-butyl-4-(3,3-difluoropiperidin-1-yl)-4-oxobutanoyl)-N-((2S)-1-(cyclopropyl-sulfonylcarbamoyl)-2-vinylcyclopropyl)-4-(7-methoxy-8-methyl-2-(pyridin-3-yl)quinolin-4-yloxy)pyrrolidine-2-carboxamide] | < 1000
9 | C=CC1C[C@]1(NC(=O)[C@@H]1C[C@@H](Oc2cc(-c3csc(C(C)C)n3)nc3c(C)c(OC)ccc23)CN1C(=O)[C@@H](CC(=O)N1CCCC(F)(F)C1)C(C)(C)C)C(=O)NS(=O)(=O)C1CC1 (stereo partly drawn) [Compound 254, (2S,4R)-1-((S)-2-tert-butyl-4-(3,3-difluoropiperidin-1-yl)-4-oxobutanoyl)-N-((1R)-1-(cyclopropyl-sulfonylcarbamoyl)-2-vinylcyclopropyl)-4-(2-(2-isopropylthiazol-4-yl)-7-methoxy-8-methylquinolin-4-yloxy)pyrrolidine-2-carboxamide] | < 1000
10 | C=C[C@@H]1C[C@]1(NC(=O)[C@@H]1C[C@@H](Oc2cc(-c3nc(C(C)C)cs3)nc3c(C)c(OC)ccc23)CN1C(=O)[C@@H](CC(=O)N1CCCCC1)C(C)(C)C)C(=O)NS(=O)(=O)C1CC1 [Compound 255, (2S,4R)-1-((S)-2-tert-butyl-4-oxo-4-(piperidin-1-yl)butanoyl)-N-((2S)-1-(cyclopropyl-sulfonylcarbamoyl)-2-vinylcyclopropyl)-4-(2-(4-isopropylthiazol-2-yl)-7-methoxy-8-methylquinolin-4-yloxy)pyrrolidine-2-carboxamide] | < 1000
